“And” between values parts separate entries of the source, which are not always exact repeats. Identical values can stand only once. Like-named read-outs stand apart in the source and are kept apart here.
Columns and labels:
[1] = tested on: patients with relapsed or refractory lymphoma; experiment: Treatment-emergent adverse events, phase 1 study 0610–01; format: in vivo
Excerpt: Study 0610–01 was a first-in-human phase 1, multi-center, open-label, dose-escalation study of pelabresib (CPI-0610) in patients with relapsed or refractory lymphoma (NCT01949883).
Eligible patients for treatment with pelabresib were adults with relapsed non-Hodgkin or Hodgkin lymphoma after at least one prior therapy or who were not eligible for high-dose chemotherapy and autologous stem cell transplantation or had refused high-dose chemotherapy and autologous stem cell transplantation. Patients were required to have platelet count ≥75 × 10^9/L, absolute neutrophil count ≥1.0 × 10^9/L, and Eastern Cooperative Oncology Group performance status of 2 or less.
(§1) Pelabresib was administered once daily (QD) for 14 days followed by a 7-day break, in continuous 21-day cycles to prevent/ameliorate thrombocytopenia. Cohorts of 3 to 6 patients were sequentially enrolled with increasing doses of pelabresib (6, 12, 24, 48, 80, 120, 170, 230, and 300 mg with the capsule formulation and 125 mg and 225 mg with the micronized tablet formulation) until the MTD was determined. Pelabresib was administered under fasting conditions (no food intake 2 hours before until 1 hour after study drug administration).
(§2) The primary objective of the study was to determine the MTD of pelabresib with characterization of dose-limiting toxicities (DLT) as a primary endpoint. Secondary objectives included adverse events (AE) and serious adverse events (SAE); tumor response according to 2007 Revised Response Criteria for Malignant Lymphoma ([13]); plasma concentration of pelabresib; PK parameters; changes in expression of MYC and other genes sensitive to BET inhibition; and changes in levels of selected mRNAs that are expressed in PBMCs and are sensitive to BET inhibition.
(§3) The MTD of pelabresib was defined as the highest dose that could be given without causing DLT in 33% or more of the patients treated at that dose (capsules or tablets). Dose-escalation followed a traditional “3 + 3” design based on the frequency of DLT. All patients who were treated with at least 1 dose of pelabresib were included in the Safety Population and used for all tabulations of demographic information, baseline characteristics, safety, PK, pharmacodynamic, and efficacy analyses.

[2] = tested on: patients with relapsed or refractory lymphoma; experiment: Dose-limiting toxicities / MTD determination (3 + 3 dose escalation); format: in vivo
Description: as §1, §2, §3

[3] = tested on: relapsed or refractory lymphoma; experiment: Tumor response, 2007 Revised Response Criteria for Malignant Lymphoma; format: in vivo, human
Excerpt: as §2, §3

IL8 = IL8 mRNA expression in patient whole blood (qPCR); format: in vivo, human
Excerpt: (§4) Whole (peripheral) blood samples were also collected at selected time points that coincided with PK sampling. Blood from patients was drawn into PAXgene blood RNA tubes (Becton Dickinson) at the clinical sites and shipped frozen to the Massachusetts General Hospital (MGH, Boston, MA) for processing. RNA was purified using a PAXgene Blood RNA Kit IVD (Qiagen) according to the manufacturer's protocol and quantitated using a Nanodrop 8000 (Thermo Scientific). RNA isolated from PBMCs was used to synthesize cDNA for qPCR analysis and gene expression was assessed by qPCR using a CCR1 or IL8 TaqMan assay. Housekeeping genes were assessed using B2M TaqMan assay, PPIB Universal Probe Library (UPL) or TaqMan assay. Relative gene expression for CCR1 and IL8 was determined after normalization to the geometric mean of the two housekeeping genes (B2M and PPIB).

CCR1 = CCR1 mRNA expression in patient whole blood (qPCR); format: in vivo, human
Excerpt: as §4

[4] = tested on: IL8 and CCR1 gene expression; experiment: PK/PD analysis of maximum gene suppression versus exposure (Emax model); format: in vivo, human
Description: To further explore the relationship between pelabresib exposure and suppression of gene expression, individual maximum gene suppression (the nadir of individual gene expression versus time profiles) was plotted as a continuous function of individual Cmax and AUC for both CCR1 and IL8. […] In total, based on this analysis, pharmacodynamic responses of at least 50% suppression in gene expression are evident at AUC and Cmax as low as 4,000 ng/hr/mL and 500 ng/mL, respectively. These exposures were achieved on average at capsule doses of 80 mg and above and were exceeded at both tablet doses.

platelet count = experiment: Platelet count values versus pelabresib dose; format: in vivo, human; conditions: QD 14 days on, 7 days off
Excerpt: To accommodate for different baseline platelet count values in different patients, changes in platelet count values were expressed as a fraction or ratio of the baseline value. There was a strong correlation between the Day 14:Day 1 platelet count ratio and pelabresib dose (R^2 = 0.81).

[5] = human, in vivo
Description: (§5) To characterize the plasma PK of pelabresib for the first dose and at steady state for multiple dosing, blood samples were taken before and at 0.5, 1, 1.5, 2, 3, 4, 6, 8, and 24 hours after the initial dose; before dosing on Day 8; before and at 0.5, 1, 1.5, 2, 3, 4, 6, 8, 24, 48, 72, 96, and 120 hours after the Day 14 dose; and prior to dosing on Day 1 of Cycle 2. Blood samples were centrifuged within 30 minutes of collection to harvest the plasma which was promptly stored in cryovials maintained at −80°C. The concentration of CPI-0610 in plasma samples was determined by reverse-phase high performance liquid chromatography with tandem mass spectrometric detection. The assay was validated and applied to the analysis of study samples according to the recommendations in the current FDA guidance. At the lowest concentration included in the calibration curves, which was 0.25 ng/mL, interday accuracy was within 0.3% of the nominal concentration and the precision was 3.0%. Interday accuracy ranged from 99.9 to 101.2% and the precision ranged from 4.0 to 6.0% for all other calibration standards. Actual time points were calculated as the difference between the blood sample collection time and the time that the drug was taken. The plasma concentration–time data were analyzed by noncompartmental methods using WinNonlin version 5.0.1 (Pharsight Corp). Area under the plasma concentration–time curve from the time of dosing to the time of last sample collected prior to administration of the next dose (AUC0–24) was estimated using the linear-log trapezoidal method. Apparent oral clearance (CL/F) was calculated as the dose divided by the AUC0–24 for the dose given on Day 14. Pharmacokinetic parameters are reported as the geometric mean [geometric coefficient of variation (CV%)] of the values for individual patients at each dose level unless otherwise indicated.

MYC = tested on: MYC; design: method as in PMID 21949397; conditions: cited from earlier work
[6] = tested on: ABC- diffuse large B-cell lymphoma (DLBCL) and Burkitt lymphoma (BL) cell lines; conditions: preclinical studies; cited from earlier work
NF-κB signaling = conditions: preclinical studies; cited from earlier work
[7] = crystalline form of pelabresib; cited from earlier work
[8] = design: method as in PMID 21949397; conditions: cited from earlier work
clinical = conditions: human, in vivo
Description: as §5

[9] = Plasma pharmacokinetics (LC-MS/MS, noncompartmental)
Description: as §5

[10] = including both tablet dose levels
[11] = whole blood, 2, 6 and 8 hours after administration
[12] = individual maximum gene suppression, inhibitory Emax model

Structure (SMILES): Cc1noc2c1-c1ccccc1C(c1ccc(Cl)cc1)=N[C@H]2CC(N)=O [pelabresib]
- Patients who died while on study ([1]; cause disease progression, none considered related to the investigational product): 9 (14.1%) patients (%)
- SAE disease progression ([1]; grade 5): 7 patients
- Anemia of Grade 3 or higher ([1]; human, in vivo): 7 (10.9%) patients (%)
- Diarrhea of Grade 3 or higher ([1]; human, in vivo): 4 (6.3%) patients (%)
- Gastrointestinal TEAEs ([1]; human, in vivo): 43 (67.2%) patients (%)
- Patients with at least 1 TEAE ([1]; human, in vivo): 64 patients
- Patients with at least 1 TEAE of Grade 3 or higher intensity ([1]; human, in vivo): 44 (68.8%) patients (%)
- SAE diarrhea ([1]; human, in vivo): 4 patients
- SAE disease progression ([1]; human, in vivo): 1 patient
- SAE pain ([1]; human, in vivo): 2 patients
- SAE pneumonia ([1]; human, in vivo): 2 patients
- TEAE Anemia ([1]; human, in vivo): 16 (25.0) n (%)
- TEAE Decreased appetite ([1]; human, in vivo): 17 (26.6) n (%)
- TEAE Diarrhea ([1]; human, in vivo): 12 (18.8) n (%)
- TEAE Dysgeusia ([1]; human, in vivo): 10 (15.6) n (%)
- TEAE Fatigue ([1]; human, in vivo): 23 (35.9) n (%)
- TEAE Hyperglycemia ([1]; human, in vivo): 12 (18.8) n (%)
- TEAE Lymphopenia ([1]; human, in vivo): 13 (20.3) n (%)
- TEAE Nausea ([1]; human, in vivo): 18 (28.1) n (%)
- TEAE Thrombocytopenia events ([1]; human, in vivo): 29 (45.3) n (%)
- TEAE Vomiting ([1]; human, in vivo): 13 (20.3) n (%)
- TEAEs that led to treatment discontinuation ([1]; human, in vivo): 9 (14.1%) patients (%)
- Thrombocytopenia events of Grade 3 or higher ([1]; human, in vivo): 13 (20.3%) patients (%)
- Treatment-emergent SAEs ([1]; human, in vivo): 27 (42.2%) patients (%)
- Recommended phase 2 dose (RP2D) ([2]; human, in vivo, 14 days): 125 mg
- DLTs: gastrointestinal (GI) events ([2]; human, in vivo, 21 days): 2
- DLTs: hematologic events ([2]; human, in vivo, 21 days): 5
- DLTs: rash ([2]; human, in vivo, 21 days): 1
- Total DLT events considered for dose-escalation ([2]; human, in vivo, 21 days): 8
- MTD ([2]; tablet, QD for 14 days with a 7-day break): 225 mg
- Overall response rate (CR + PR) ([3]; 4 of 64 patients): 6.2%
- Patients with prolonged (>6 months) stable disease ([3]; 64 patients): 5 patients
- Best overall response CR ([3]; Overall N = 64): 2 (3.1%) n (%) and 2 (3.1) n (%)
- Best overall response PR ([3]; Overall N = 64): 2 (3.1%) n (%) and 2 (3.1) n (%)
- Best overall response SD ([3]; Overall N = 64): 21 (32.8%) n (%) and 21 (32.8) n (%)
- Overall response rate (CR + PR) ([3]; Overall N = 64, all doses and formulations): 4 (6.2) n (%)
- Lowest dose at which complete remission was achieved ([3]; QD capsule): 48 mg
- Median duration of response (CR or PR), (range) ([3]; patients with CR or PR): 8.4 (6.1–46.1) weeks
- Time to treatment (CR or PR) ([3]; patients with CR or PR): 4–18 cycles
- Time to response (CR or PR) ([3]; patients with CR or PR, 21-day cycles): 2–6 cycles
- Dose level with maximum reduction of IL8 expression (IL8; capsule): 120 mg
- Capsule doses at whose exposures suppression of IL8 was much more apparent (IL8; [10]): greater than or equal to 120 mg
- Earliest time of decreased IL8 expression postdose (IL8; whole blood): ≤ 2 h
- Capsule dose above which appreciable changes in expression of IL8 were shown (IL8; [11]): above 120 mg
- Capsule doses at whose exposures suppression of CCR1 was much more apparent (CCR1; [10]): ≥ 170 mg
- Earliest time of decreased CCR1 expression postdose (CCR1; whole blood): ≤ 2 h
- Capsule dose above which appreciable changes in expression of CCR1 were shown (CCR1; [11]): > 170 mg
- Capsule doses at which these exposures (AUC 4,000, Cmax 500) were achieved on average ([4]; exceeded at both tablet doses): ≥ 80 mg
- AUC at which at least 50% suppression in gene expression is evident [4, 12]: ≥ 4,000 ng/hr/mL
- Cmax at which at least 50% suppression in gene expression is evident [4, 12]: ≥ 500 ng/mL
- Character of decreases in platelet count values (platelet count): dose dependent, reversible, and non-cumulative
- Factor to convert tablet doses to capsule doses [5]: 1.34
- Range of time of peak plasma concentrations [5]: 0.9 to 7.9 h
- Mean AUC0–24 ([5]; 225 mg): 20,700 ng/h/mL
- Accumulation at most ([5]; 14 days): ≤ 40%
- Accumulation, mean (±SD) ([5]; 14 days): 4.3 ± 1.0%
- Time by which MYC expression had returned to its baseline value (MYC; single 30 mg/kg oral dose ref 11): ≤ 12 h
- Maximum inhibition of MYC expression in tumor tissue (MYC; single 30 mg/kg oral dose, 4 hours postdosing, immunodeficient mice ref 11): 75%
- Time of maximum inhibition of MYC expression (MYC; single 30 mg/kg oral dose, earliest postdosing time point assessed ref 11): 4 h
- Effect on viability [6]: loss of viability
- Effect on NF-κB signaling activity (NF-κB signaling): downregulation
- Aqueous solubility [7]: low
- Clearance in mice [8]: rapid clearance
- Cmax (clinical; 225 mg): 2020 ng/mL
- bioavailability (clinical; Exposure (bioavailability) of tablet greater than capsule): 60%
- half-life (clinical; Half-life (mean apparent terminal phase)): ~15 h
- Tmax (clinical; Median time of peak plasma concentrations): 1.9 h
- Tmax (clinical; Median time to maximum plasma concentrations): 2 h
- Tmax (clinical; Range of time of peak plasma concentrations): 0.5 to 7.4 h
- half-life (clinical; Terminal half-life, geometric mean (geometric CV)): 15.3 h
- Accumulation, mean (±SD) ([9]; capsule formulation, 14 days of continuous QD dosing): 20.5 ± 7.2%
- half-life ([9]; human, plasma, oral, Terminal half-life, geometric mean (geometric CV), capsule): 11.6 h
- Tablet dose approximately corresponding to the 120 mg capsule dose level ([9]; in vivo): ~75 mg
- Apparent oral clearance, geometric mean (geometric CV) ([9]; tablet dosage form, Day 14): 12.3 (27.2%) L/h
